Holding throughout (format): functional
Holding throughout (details): 168 h, read-out: GI

Experiment [1] relates to Curvularia pallescens. Nature of the experiment: Antifungal activity against Cochliobolus pallescens assessed as mycelial growth inhibition at 100 ppm at 28 +/-2 degC after 7 days by food poison technique.
The subject of experiment [2] is Fusarium oxysporum. Nature of the experiment: Antifungal activity against Fusarium oxysporum assessed as mycelial growth inhibition at 1000 ppm at 28 +/-2 degC after 7 days by food poison technique.
The test system of experiment [3] is Fusarium oxysporum. Briefly: Antifungal activity against Fusarium oxysporum assessed as mycelial growth inhibition at 100 ppm at 28 +/-2 degC after 7 days by food poison technique.
Experiment [4] relates to Curvularia pallescens. Briefly: Antifungal activity against Cochliobolus pallescens assessed as mycelial growth inhibition at 1000 ppm at 28 +/-2 degC after 7 days by food poison technique.
In experiment [5] the test system is Curvularia pallescens. Nature of the experiment: Antifungal activity against Cochliobolus pallescens assessed as mycelial growth inhibition at 10 ppm at 28 +/-2 degC after 7 days by food poison technique.
The subject of experiment [6] is Colletotrichum falcatum. Nature of the experiment: Antifungal activity against Glomerella tucumanensis assessed as mycelial growth inhibition at 1000 ppm at 28 +/-2 degC after 7 days by food poison technique.
Experiment [7] deals with Colletotrichum falcatum. Briefly: Antifungal activity against Glomerella tucumanensis assessed as mycelial growth inhibition at 10 ppm at 28 +/-2 degC after 7 days by food poison technique.
For experiment [8], the system named is Colletotrichum falcatum. Nature of the experiment: Antifungal activity against Glomerella tucumanensis assessed as mycelial growth inhibition at 100 ppm at 28 +/-2 degC after 7 days by food poison technique.
Experiment [9] deals with Fusarium oxysporum. Briefly: Antifungal activity against Fusarium oxysporum assessed as mycelial growth inhibition at 10 ppm at 28 +/-2 degC after 7 days by food poison technique.

As to `CCOP(=O)(OCC)O/C(=N\N=C1/C(=O)Nc2ccccc21)c1ccc(Cl)cc1`, the inhibition of growth at 100 ppm came to 62.4% in the experiment with Curvularia pallescens [1], 67.8% in the experiment with Fusarium oxysporum [3] and 64.2% in the experiment on Colletotrichum falcatum [8]. Further, the inhibition of growth at 1000 ppm with Fusarium oxysporum [2] is 72.6%; in the experiment with Curvularia pallescens [4], 71.2%; in the experiment with Colletotrichum falcatum [6], 69.6%. The inhibition of growth at 10 ppm with Curvularia pallescens [5] is 51.6%; with Colletotrichum falcatum [7] it was 56.8%; in the experiment on Fusarium oxysporum [9], 54.2%.
Regarding `CCOP(=O)(OCC)O/C(=N\N=C1/C(=O)Nc2ccccc21)c1ccc([N+](=O)[O-])cc1`, the inhibition of growth at 100 ppm in the experiment with Curvularia pallescens [1] is 38.6%; in the experiment with Fusarium oxysporum [3], 39.6%; with Colletotrichum falcatum [8], 40.1%. In addition, the results for the inhibition of growth at 1000 ppm in the experiment with Fusarium oxysporum [2], with Curvularia pallescens [4] and in the experiment on Colletotrichum falcatum [6] were 56.2%, 51.8% and 54.2%, respectively. Also, the inhibition of growth at 10 ppm in the experiment on Curvularia pallescens [5] is 26.8%; in the experiment on Colletotrichum falcatum [7] it was 30.2%; with Fusarium oxysporum [9], 29.4%.
As for `CCOP(=S)(OCC)O/C(=N\N=C1/C(=O)Nc2ccccc21)c1ccccc1`, the inhibition of growth at 100 ppm with Curvularia pallescens [1] was found to be 65.8%; in the experiment on Fusarium oxysporum [3], 69.2%; with Colletotrichum falcatum [8], 65.1%. The inhibition of growth at 1000 ppm was 74.2% in the experiment with Fusarium oxysporum [2], 73.5% with Curvularia pallescens [4] and 70.8% with Colletotrichum falcatum [6]. The figures for the inhibition of growth at 10 ppm in the experiment with Curvularia pallescens [5], in the experiment with Colletotrichum falcatum [7] and in the experiment with Fusarium oxysporum [9] were 55.7%, 58.2% and 55.2%, respectively.
`CCOP(=S)(OCC)O/C(=N\N=C1/C(=O)Nc2ccccc21)c1ccc(Cl)cc1`: the inhibition of growth at 100 ppm in the experiment with Curvularia pallescens [1] is 71.6%; in the experiment on Fusarium oxysporum [3] it was 78.2%; in the experiment with Colletotrichum falcatum [8], 72.4%. For the same compound, the inhibition of growth at 1000 ppm in the experiment with Fusarium oxysporum [2] came out at 85.8%; in the experiment on Curvularia pallescens [4], 85.8%; in the experiment with Colletotrichum falcatum [6] it was 88.6%. Further, the inhibition of growth at 10 ppm was determined as 61.6% in the experiment on Curvularia pallescens [5], 60.5% with Colletotrichum falcatum [7] and 68.6% with Fusarium oxysporum [9].
As for `CCOP(=S)(OCC)O/C(=N\N=C1/C(=O)Nc2ccccc21)c1ccc([N+](=O)[O-])cc1`, the inhibition of growth at 100 ppm turned out to be 45.6% in the experiment on Curvularia pallescens [1], 47.2% in the experiment with Fusarium oxysporum [3] and 46.2% with Colletotrichum falcatum [8]. The inhibition of growth at 1000 ppm with Fusarium oxysporum [2] came out at 58.2%; in the experiment with Curvularia pallescens [4], 57.2%; in the experiment with Colletotrichum falcatum [6] it was 58.2%. The inhibition of growth at 10 ppm with Curvularia pallescens [5] stood at 36.2%; with Colletotrichum falcatum [7], 39.8%; in the experiment with Fusarium oxysporum [9], 40%.
For the compound `CCOP(=O)(OCC)O/C(=N\N=C1/C(=O)Nc2ccccc21)c1ccc(OP(=O)(OCC)OCC)cc1`, the inhibition of growth at 100 ppm in the experiment with Curvularia pallescens [1] was found to be 51.7%; in the experiment with Fusarium oxysporum [3], 58%; with Colletotrichum falcatum [8], 62.4%. The inhibition of growth at 1000 ppm in the experiment on Fusarium oxysporum [2] was 71.5%; with Curvularia pallescens [4], 67.8%; in the experiment on Colletotrichum falcatum [6] it was 69.2%. Also, the values for the inhibition of growth at 10 ppm with Curvularia pallescens [5], with Colletotrichum falcatum [7] and with Fusarium oxysporum [9] were 51.8%, 52.3% and 52.6%, respectively.
On to `CCOP(=S)(OCC)O/C(=N\N=C1/C(=O)Nc2ccccc21)c1ccc(OP(=S)(OCC)OCC)cc1`, for which the inhibition of growth at 100 ppm in the experiment with Curvularia pallescens [1] turned out to be 66.2%; with Fusarium oxysporum [3] it was 68.2%; in the experiment with Colletotrichum falcatum [8] it was 68.2%. Besides, the inhibition of growth at 1000 ppm is 82.4% with Fusarium oxysporum [2], 81.4% in the experiment on Curvularia pallescens [4] and 87% with Colletotrichum falcatum [6]. Also, the figures for the inhibition of growth at 10 ppm in the experiment with Curvularia pallescens [5], in the experiment on Colletotrichum falcatum [7] and in the experiment on Fusarium oxysporum [9] were 56%, 58.2% and 57.1%, respectively.
In the case of `CCOP(=O)(OCC)O/C(=N\N=C1/C(=O)Nc2ccccc21)c1ccccc1P(=O)(OCC)OCC`, the results for the inhibition of growth at 100 ppm in the experiment with Curvularia pallescens [1], with Fusarium oxysporum [3] and in the experiment on Colletotrichum falcatum [8] were 56.7%, 56.2% and 59.9%, respectively. In addition, the inhibition of growth at 1000 ppm in the experiment with Fusarium oxysporum [2] was 66.5%; in the experiment on Curvularia pallescens [4] it was 65.6%; in the experiment on Colletotrichum falcatum [6], 68.8%. The inhibition of growth at 10 ppm in the experiment on Curvularia pallescens [5] came to 47.7%; in the experiment on Colletotrichum falcatum [7], 51.5%; in the experiment with Fusarium oxysporum [9], 49.8%.
For the compound `CCOP(=S)(OCC)O/C(=N\N=C1/C(=O)Nc2ccccc21)c1ccccc1P(=S)(OCC)OCC`, the inhibition of growth at 100 ppm with Curvularia pallescens [1] was 64.2%; with Fusarium oxysporum [3], 66.5%; with Colletotrichum falcatum [8], 67.2%. For the same compound, the inhibition of growth at 1000 ppm in the experiment on Fusarium oxysporum [2] was 82.8%; in the experiment on Curvularia pallescens [4] it was 80.5%; in the experiment with Colletotrichum falcatum [6], 86.6%. Besides, the inhibition of growth at 10 ppm in the experiment on Curvularia pallescens [5] is 54.2%; with Colletotrichum falcatum [7], 57.6%; in the experiment on Fusarium oxysporum [9] it was 55.2%.
Take `CCOP(=O)(OCC)O/C(COc1ccccc1)=N\N=C1/C(=O)Nc2ccccc21`: the inhibition of growth at 100 ppm worked out at 58.2% in the experiment on Curvularia pallescens [1], 59.2% in the experiment on Fusarium oxysporum [3] and 61.6% with Colletotrichum falcatum [8]. The inhibition of growth at 1000 ppm was 69.6% with Fusarium oxysporum [2], 68.8% with Curvularia pallescens [4] and 70.2% in the experiment with Colletotrichum falcatum [6]. For the same compound, the inhibition of growth at 10 ppm in the experiment on Curvularia pallescens [5] stood at 50.1%; in the experiment on Colletotrichum falcatum [7], 51.2%; in the experiment on Fusarium oxysporum [9], 50%.
Turning to `CCOP(=O)(OCC)O/C(COc1ccc(Cl)cc1)=N\N=C1/C(=O)Nc2ccccc21`, the inhibition of growth at 100 ppm worked out at 71.8% in the experiment with Curvularia pallescens [1], 74.2% in the experiment with Fusarium oxysporum [3] and 71.6% in the experiment on Colletotrichum falcatum [8]. Besides, the inhibition of growth at 1000 ppm with Fusarium oxysporum [2] amounted to 85.6%; in the experiment with Curvularia pallescens [4] it was 82.6%; in the experiment with Colletotrichum falcatum [6], 80.2%. The results for the inhibition of growth at 10 ppm with Curvularia pallescens [5], in the experiment with Colletotrichum falcatum [7] and with Fusarium oxysporum [9] were 60.9%, 64.8% and 61.8%, respectively.
Consider `CCOP(=O)(OCC)O/C(COc1ccc([N+](=O)[O-])cc1)=N\N=C1/C(=O)Nc2ccccc21`, for which the inhibition of growth at 100 ppm was 42.8% with Curvularia pallescens [1], 45.8% with Fusarium oxysporum [3] and 48.6% in the experiment with Colletotrichum falcatum [8]. Further, the results for the inhibition of growth at 1000 ppm in the experiment with Fusarium oxysporum [2], with Curvularia pallescens [4] and in the experiment on Colletotrichum falcatum [6] were 61.5%, 55.6% and 60.2%, respectively. Besides, the figures for the inhibition of growth at 10 ppm with Curvularia pallescens [5], with Colletotrichum falcatum [7] and in the experiment with Fusarium oxysporum [9] were 34%, 38.6% and 37.2%, respectively.
Consider `CCOP(=S)(OCC)O/C(COc1ccccc1)=N\N=C1/C(=O)Nc2ccccc21`, for which the inhibition of growth at 100 ppm is 62.7% with Curvularia pallescens [1], 69.1% with Fusarium oxysporum [3] and 67% in the experiment with Colletotrichum falcatum [8]. The inhibition of growth at 1000 ppm with Fusarium oxysporum [2] stood at 76.8%; in the experiment with Curvularia pallescens [4], 74.2%; in the experiment on Colletotrichum falcatum [6], 75.2%. For the same compound, the inhibition of growth at 10 ppm came out at 52.6% in the experiment with Curvularia pallescens [5], 56.2% in the experiment on Colletotrichum falcatum [7] and 54% in the experiment with Fusarium oxysporum [9].
Regarding `CCOP(=S)(OCC)O/C(COc1ccc([N+](=O)[O-])cc1)=N\N=C1/C(=O)Nc2ccccc21`, the figures for the inhibition of growth at 100 ppm with Curvularia pallescens [1], in the experiment on Fusarium oxysporum [3] and with Colletotrichum falcatum [8] were 52.8%, 52.6% and 56.2%, respectively. For the same compound, the inhibition of growth at 1000 ppm in the experiment with Fusarium oxysporum [2] was 67.8%; with Curvularia pallescens [4] it was 65.6%; in the experiment with Colletotrichum falcatum [6], 68.4%. For the same compound, the results for the inhibition of growth at 10 ppm in the experiment on Curvularia pallescens [5], in the experiment on Colletotrichum falcatum [7] and in the experiment on Fusarium oxysporum [9] were 40.6%, 48.2% and 44.6%, respectively.
Regarding `CCOP(=O)(OCC)O/C(COc1ccc(OP(=O)(OCC)OCC)cc1)=N\N=C1/C(=O)Nc2ccccc21`, the inhibition of growth at 100 ppm in the experiment with Curvularia pallescens [1] stood at 70%; in the experiment with Fusarium oxysporum [3], 69.2%; with Colletotrichum falcatum [8], 70.2%. For the same compound, the inhibition of growth at 1000 ppm was 78.6% with Fusarium oxysporum [2], 76.4% in the experiment with Curvularia pallescens [4] and 80.6% in the experiment with Colletotrichum falcatum [6]. Further, the inhibition of growth at 10 ppm stood at 62.8% in the experiment with Curvularia pallescens [5], 61.5% with Colletotrichum falcatum [7] and 60.2% in the experiment on Fusarium oxysporum [9].
Turning to `CCOP(=O)(OCC)O/C(COc1ccccc1P(=O)(OCC)OCC)=N\N=C1/C(=O)Nc2ccccc21`, the inhibition of growth at 100 ppm with Curvularia pallescens [1] was found to be 64.6%; in the experiment with Fusarium oxysporum [3] it was 64%; with Colletotrichum falcatum [8], 67.4%. Also, the inhibition of growth at 1000 ppm was 74.2% in the experiment with Fusarium oxysporum [2], 71.2% with Curvularia pallescens [4] and 78.2% in the experiment on Colletotrichum falcatum [6]. The inhibition of growth at 10 ppm came out at 57.2% in the experiment on Curvularia pallescens [5], 60.2% in the experiment with Colletotrichum falcatum [7] and 58.6% in the experiment with Fusarium oxysporum [9].
For the compound `CCOP(=S)(OCC)O/C(COc1ccccc1P(=S)(OCC)OCC)=N\N=C1/C(=O)Nc2ccccc21`, the inhibition of growth at 100 ppm in the experiment on Curvularia pallescens [1] stood at 79.9%; with Fusarium oxysporum [3], 80%; in the experiment on Colletotrichum falcatum [8], 81.2%. Also, the inhibition of growth at 1000 ppm in the experiment with Fusarium oxysporum [2] turned out to be 92.8%; with Curvularia pallescens [4] it was 93.8%; with Colletotrichum falcatum [6], 95.6%. The figures for the inhibition of growth at 10 ppm in the experiment on Curvularia pallescens [5], in the experiment on Colletotrichum falcatum [7] and with Fusarium oxysporum [9] were 72.8%, 72.5% and 71.6%, respectively.

The values above are taken from ChEMBL document CHEMBL3045645, “Organophosphorus derivatives containing isatin-3-hydrazones as chemotherapeutants against fungal pathogens of sugarcane” (2008).
